The record followed here is PubChem BioAssay AID742 (SRMLSC, 2007).

Active and inactive are the calls of the source. The rule behind the calls is not given here.

Experiment [1] in a line: inhibitors of Her2 kinase expression, dose response, cell-based, AlphaScreen, CellTiter-Glo viability (AID 742). The note with it: human cells, Her2 expression AlphaScreen; CTG viability; at 9.62 µM (top of the series).
For experiment [2], the system named is human cells, Her2 expression AlphaScreen; CTG viability. The experiment is described as above. Conditions: viability, CellTiter-Glo. In general terms: In ATP-based viability assays light output follows the ATP content of the culture.

As a reminder, the EC50 is the midpoint of the concentration-response curve. Higher therefore signals a less potent agent.

For the compound `O=C(CCN1CCC(c2ccccc2)C1)c1cccs1` (stereo unspecified), in experiment [1], the Her2 inhibition was -8.45% (inactive). The EC50 in experiment [2] was more than 9.62 µM.

Turning to `Cc1nc2cc(S(=O)(=O)C(F)(F)F)ccc2s1`, the Her2 inhibition in experiment [1] is -23.9% (inactive). Further, the EC50 in experiment [2] was more than 9.62 µM.

`COC(=O)Nc1ccc(S(=O)(=O)N(CCO)CC(F)(F)C(F)F)cc1`: the Her2 inhibition in experiment [1] is -11.6% (inactive). This compound also displayed an EC50 in experiment [2] of more than 9.62 µM.

In the case of `COc1cccc(-c2nnn(CC(=O)O)n2)c1`, the Her2 inhibition in experiment [1] is -1.29% (inactive). Moreover, the EC50 in experiment [2] is more than 9.62 µM.

Consider `CCOC(=O)CCS(=O)(=O)c1nc(-c2ccccc2)cc(C(F)(F)F)n1`, for which the Her2 inhibition in experiment [1] was 27.6% (inactive). Also, in experiment [2], the EC50 was more than 9.62 µM.

On to `CCOc1ccc(NC(=O)C/C(N)=N/O)cc1`, for which the Her2 inhibition in experiment [1] was -1.78% (inactive). In experiment [2], the EC50 was more than 9.62 µM.

For the compound `Nc1ccc2ncccc2c1N`, the Her2 inhibition in experiment [1] is 1.77% (inactive). In addition, in experiment [2], the EC50 was more than 9.62 µM.

For the compound `Cc1ccc(C2CC(=O)N3CN(c4ccc(Br)cc4)CSC3=C2C#N)o1` (stereo unspecified), in experiment [1], the Her2 inhibition is 16% (inactive). For the same compound, in experiment [2], the EC50 is more than 9.62 µM.

In the case of `Cc1ccc(S(=O)(=O)c2c(C)nn(C(C)(C)C)c2OC(=O)c2ccc(Br)o2)cc1`, the Her2 inhibition in experiment [1] was 4.78% (inactive). The compound also registered an EC50 in experiment [2] of more than 9.62 µM.

Take `COc1ccc(Cl)c(Cn2c(NCc3ccco3)nc3c2c(=O)n(C)c(=O)n3C)c1`: the Her2 inhibition in experiment [1] was 0.72% (inactive). Besides, the EC50 in experiment [2] was more than 9.62 µM.

For the compound `Cc1nn(C)c(C)c1Sc1ccc(Br)cc1`, in experiment [1], the Her2 inhibition was -6.9% (inactive). In experiment [2], this compound yielded an EC50 of more than 9.62 µM.

As to `CNCCCC12CCC(c3ccccc31)c1ccccc12`, in experiment [1], the Her2 inhibition is -11.5% (inactive). This compound had an EC50 in experiment [2] of more than 9.62 µM.

For the compound `O=c1[nH]c(Nc2nc3ccccc3o2)nc2c1CCCC2`, in experiment [1], the Her2 inhibition was -16.5% (inactive). The EC50 in experiment [2] was more than 9.62 µM.

In the case of `CCCCCNC(=O)C(C#N)c1nc2ccccc2nc1N1CCCC1` (stereo unspecified), the Her2 inhibition in experiment [1] was -19% (inactive). In experiment [2], this compound had an EC50 of more than 9.62 µM.

For `O=C(O)CCc1nn2cc(-c3ccccc3)nc2[nH]c1=O`, the Her2 inhibition in experiment [1] is -26.9% (inactive). This compound came in with an EC50 in experiment [2] of more than 9.62 µM.

Regarding `CCCCCn1c(CN2CCCCC2CC)nc2c1c(=O)n(C)c(=O)n2C` (stereo unspecified), in experiment [1], the Her2 inhibition is -28.1% (inactive). In addition, the EC50 in experiment [2] was more than 9.62 µM.

Regarding `C=CCOC(=O)C1=C(C)Nc2nnnn2C1c1cc(OC)ccc1OC` (stereo unspecified), the Her2 inhibition in experiment [1] is -8.6% (inactive). For the same compound, in experiment [2], the EC50 was more than 9.62 µM.

For `Cc1cccc(Nc2nc(-c3ccccn3)cs2)n1`, in experiment [1], the Her2 inhibition is 0.46% (inactive). In experiment [2], this compound gave an EC50 of more than 9.62 µM.

As for `Cc1ccc(C(CC(=O)c2ccco2)SCCO)cc1` (stereo unspecified), the Her2 inhibition in experiment [1] is 10.4% (inactive). The same compound had an EC50 in experiment [2] of more than 9.62 µM.

As for `O=C(Nc1ccc(Cl)cc1)Nc1ccc2c(c1)N1CCN=C1S2`, the Her2 inhibition in experiment [1] was -7.78% (inactive). This compound gave an EC50 in experiment [2] of more than 9.62 µM.

On to `Cc1nnc(SCc2nnc(-c3ccccc3Br)o2)n1-c1ccccc1`, for which, in experiment [1], the Her2 inhibition is -17.1% (inactive). This compound also showed an EC50 in experiment [2] of more than 9.62 µM.

As to `COCc1cc(C)nc(Nc2ccc(C)c(C)c2)c1C#N`, the Her2 inhibition in experiment [1] was 20.5% (inactive). Besides, the EC50 in experiment [2] is more than 9.62 µM.

As for `N#C/C(C(N)=O)=c1/ccc2c(c1)N1C3=C(CCCC3)CC3CCCCC31N=2` (stereo unspecified), the Her2 inhibition in experiment [1] is 4.75% (inactive). This compound displayed an EC50 in experiment [2] of more than 9.62 µM.

With `CCN(CC(=O)NCc1cccs1)c1nnnn1-c1ccccc1`, the Her2 inhibition in experiment [1] is -22.3% (inactive). Further, the EC50 in experiment [2] is more than 9.62 µM.

Consider `O=C(Nc1ccc2c(c1)OCO2)c1cnn2cccnc12`, for which the Her2 inhibition in experiment [1] is -5.1% (inactive). The EC50 in experiment [2] is more than 9.62 µM.

For the compound `O=C(c1ccco1)N(Cc1ccco1)c1ccc(O)cc1`, the Her2 inhibition in experiment [1] is -0.36% (inactive). The same compound returned an EC50 in experiment [2] of more than 9.62 µM.

With `CCCCC(C(=O)O)C(C)CC(=O)Nc1cccc(C(=O)O)c1` (stereo unspecified), the Her2 inhibition in experiment [1] is -10.2% (inactive). In experiment [2], the EC50 was more than 9.62 µM.

`O=C(CSc1oc(-c2ccccc2)nc1S(=O)(=O)c1ccc(F)cc1)NCC1CCCO1` (stereo unspecified): in experiment [1], the Her2 inhibition was 11.4% (inactive). The compound also showed an EC50 in experiment [2] of more than 9.62 µM.

Take `CCOC(=O)N1CCN(c2nnnn2-c2ccccc2)CC1`: in experiment [1], the Her2 inhibition was -3.51% (inactive). Further, the EC50 in experiment [2] was more than 9.62 µM.

With `CCOc1cc(C(=O)CSc2nnc(CNc3ccc(Cl)cc3)o2)ccc1NC(=O)CC`, the Her2 inhibition in experiment [1] is -22.6% (inactive). For the same compound, in experiment [2], the EC50 is more than 9.62 µM.

As for `CC(=O)Nc1cccc(NC(=O)c2c(-c3ccccc3Cl)noc2C)c1`, the Her2 inhibition in experiment [1] was -14.7% (inactive). The compound further returned an EC50 in experiment [2] of more than 9.62 µM.

As to `Cc1ccccc1OCCCC(=O)Nc1nccs1`, the Her2 inhibition in experiment [1] was -6.38% (inactive). This compound also displayed an EC50 in experiment [2] of more than 9.62 µM.

Turning to `C#CCOC(=O)c1ccccc1C(=O)OCC#C`, the Her2 inhibition in experiment [1] was -22.6% (inactive). In experiment [2], the EC50 is more than 9.62 µM.
